From patent US11773127B2, “Compounds and methods for treating bacterial infections” (Washington University, priority 2017, dated 2023)

How the values were obtained:
[1] = biological target: T1, FmlHLD (Escherichia coli, UniProt P77588); experiment: biochemical; format: binding, E. coli
T1 construct: 6xHis (C); made in house; host or cells: E. coli C600, periplasm, pTRC99a
Method in brief: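 Sialidase-treated bovine submaxillary mucin (ds-BSM) coated wells, BSA-blocked, then biotinylated FmlH^LD (20 μg/mL) with or without compound for 1 h at room temperature. Bound lectin detected by streptavidin-HRP/TMB, A450.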

[2] = biological target: T1, FmlHLD; experiment: biochemical; format: binding, E. coli; conditions: for Kd: immobilized ser-TF
Description: Bio-layer interferometry (BLI) was used to quantitate the binding affinity of select galactosides to FmlH.
Thereafter, pins were dipped in PBS for 120 s and transferred to protein samples (varying concentration of FmlHLD or fixed concentration of FmlHLD with varying concentration of galactoside compounds) for association for 300-600 s.

[3] = test system: CFT073; experiment: Murine chronic UTI (chronic cystitis) model, bacterial titers in bladder and kidney; format: in vivo, C3H/HeN mice; conditions: 50 mg/kg transurethral, 6 hours post treatment, relative to vehicle control
Method: To assess therapeutic efficacy, galactosides were evaluated for their ability to reduce bacterial burdens in the urinary tracts of C3H/HeN mice during chronic UTI. 7-8 week old female C3H/HeN mice were obtained from Envigo (Indianapolis, IN). Mice were anesthetized and inoculated via transurethral catheterization with 50 μl of CFT073 bacterial suspension (˜1-2*10^8 CFU in total) in phosphate-buffered saline (PBS). Chronic cystitis in C3H/HeN mice was defined as urine titers of >10^4 CFU/ml lasting at least two to four weeks, as well as bladder inflammation and edema at euthanasia. […] Accordingly, high levels of CFT073 kidney colonization were also observed in control (vehicle-treated) animals. […] Compounds tested were: 29β-NAc (50 mg/kg), mannoside 4Z269 (a type 1 pilus adhesin FimH inhibitor, 50 mg/kg), or 29β-NAc+4Z269. Mice were sacrificed 6 hours post treatment and bacteria colonizing the bladder or kidney were plated for quantification. Data are presented in FIG. 9, panels A and B, as bacterial titers of CFT073 in each organ in each condition. The horizontal lines represent the means. Asterisks indicate significance (*P<0.05, **P<0.01, ***P<0.001, ****P<0.0001, two-tailed Mann-Whitney U test). Each condition was measured in two or three independent experiments with 4 or 5 mice per group per experiment.

[4] = biological target: T1, FmlHLD; experiment: Immunofluorescence of FmlHLD binding to human bladder and kidney tissue; design: species or system E. coli; conditions: 50 μg/ml FmlHLD WT incubated with 100 μM compound
Method: The relevance of FmlH and FmlH-targeting galactosides in human UTI was assessed by performing immunofluorescence analysis of wild-type (WT) FmlHLD or mutant (K132Q) FmlHLD binding to human bladder and non-malignant kidney biopsied tissue in the presence or absence of 29β-NAc.
Frozen, de-identified human bladder and kidney sections were obtained from the Tissue Procurement Core and stored stably at −80° C. These tissue section slides were removed from the freezer and allowed to thaw at room temperature for 10-20 min. After applying a hydrophobic barrier pen around the tissue, slides were rehydrated in 200 μl buffer (5% BSA, 0.2% Triton X-100 in PBS) for 10 min. Buffer was gently aspirated and slides were blocked for 1 hr at room temperature with 200 μl buffer. Thereafter, buffer was gently aspirated and slides were incubated with 200 μl sample overnight at 4° C. Samples diluted in buffer included 50 μg/ml FmlHLD wild-type (WT), 50 μg/ml FmlHLD K132Q, and 50 μg/ml FmlHLD WT incubated with 100 μM 29β-NAc. Samples were gently aspirated and slides were washed three times in buffer for 5 min each. Next, slides were incubated with a mouse anti-FmlH polyclonal antibody (1:500 dilution in buffer) for 1 hr at room temperature. […]

[5] = biological target: T2, FmlH lectin domain (FmlH^LD; first 182 amino acids of CFT073 FmlH = signal sequence and lectin domain, C-terminal 6×-his tag, wild-type, biotinylated) (Escherichia coli, UniProt A0A0H2V7F6); experiment: ELISA-based competition assay: inhibition of biotinylated FmlH lectin domain binding to surface-immobilized desialylated bovine submaxillary mucin (ds-BSM); design: species or system E. coli (uropathogenic, urosepsis isolate CFT073); conditions: read-out: FmlH (FmlH^LD) lectin domain (LD) IC50, FIG. 14, 20 μg/mL biotinylated FmlH^LD, compounds serially diluted 2×, 1 hour at room temperature, ds-BSM coated wells, absorbance 450 nm
T2 construct: biotinylated for ELISA; wild type
T2 sequence (A0A0H2V7F6 entry or part of it): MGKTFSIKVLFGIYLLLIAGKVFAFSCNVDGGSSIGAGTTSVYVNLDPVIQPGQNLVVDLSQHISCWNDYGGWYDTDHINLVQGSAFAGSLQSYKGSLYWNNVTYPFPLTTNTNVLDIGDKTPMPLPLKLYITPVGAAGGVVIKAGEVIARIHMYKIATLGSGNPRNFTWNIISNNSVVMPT
Method: Thereafter, wells were incubated with 200 μl blocking buffer (PBS+1% BSA) for 2 hours at 23° C., followed by incubation with 100 μl biotinylated FmlHLD diluted in blocking buffer to 20 μg/ml in the presence or absence of the tested compounds for 1 hr at 23° C. After washing 3× with PBS+0.05% TWEEN-20, 100 μl Streptavidin-HRP conjugate (BD Biosciences; 1:2000 dilution in blocking buffer) was added to each well for 1 hr at 23° C. After a final round of washing, plates were developed with 100 μl Tetramethylbenzidine (TMB, BD Biosciences) substrate, quenched within 1-2 min with 50 μl […], and absorbance measured at 450 nm.
Briefly, 1 μg bovine submaxillary mucin (Sigma) in 100 uL PBS were incubated with Immulon 4HBX 96-well plates overnight prior to treatment with 1 mU Arthrobacter ureafaciens sialidase for 1 hour at 37° C. to remove terminal sialic acid sugars. Wells were then blocked with 200 μL PBS+1% BSA for 2 hours at room temperature. Biotinylated FmlH^LD was diluted to 20 μg/mL in blocking buffer and incubated in the presence or absence of compounds serially diluted 2× down eight rows for 1 hour at room temperature. […] Total bound portion concentration was measured by the absorbance at 450 nm. IC50s were determined using the Graphpad Prism software.

T1 sequence (P77588 25-182): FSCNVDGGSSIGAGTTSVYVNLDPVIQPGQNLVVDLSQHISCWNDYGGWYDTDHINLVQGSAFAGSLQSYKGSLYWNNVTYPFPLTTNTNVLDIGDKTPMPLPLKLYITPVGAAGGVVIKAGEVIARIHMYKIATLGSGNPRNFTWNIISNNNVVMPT

In the case of `CC(=O)N[C@H]1[C@H](Oc2ccccc2-c2cccc(C(=O)O)c2)O[C@H](CO)[C@H](O)[C@@H]1O` [Compound 29β-NAc, 2′-(2-acetamido-2-deoxy-β-D-galactopyranosyloxy)-[1,1′-Biphenyl]-3-carboxylic acid], the “inhibitory potency against FmlH, in words” value ([1]; ELISA-based competition assay) is reported as “most potent”, the IC50 ([1]; IC50 (μM), Table 5, Gal and GalNAc inhibition of FmlH) is reported as 0.64 µM and the inhibition at 1 µM ([1]; read-out: PI1 (percent inhibition), galactoside at 1 μM, mean with standard error of the mean) is reported as 54.7 ± 2.8%. For the same molecule, the inhibition at 10 µM ([1]; read-out: PI10 (percent inhibition), galactoside at 10 μM, mean with standard error of the mean) was 93%, the inhibition at 100 µM ([1]; read-out: PI100 (percent inhibition), galactoside at 100 μM, mean with standard error of the mean) was 99.5 ± 2.2% and the “enhancement in binding affinity relative to Gal” value ([2]; BLI Kd ratio) was ~7,800 fold. The Kd ([2]; Kd (μM), inhibitory constants, fixed FmlHLD, varying galactoside in solution) was 0.089 µM, the Kd ([2]; Kd, galactoside in solution) was about 0.09 µM and the “bacterial titers of CFT073 in the bladder” value [3] was “significant reduction of CFT073 in the bladders”. The “bacterial titers of CFT073 in the kidney” value [3] was “even greater clearance of CFT073 from the kidneys” and the “FmlHLD binding to human kidney tissue” value [4] was “prevented binding to human kidney tissue”.
Work on `CC(=O)N[C@H]1[C@H](Oc2ccccc2-c2cccc(C(=O)O)c2)O[C@H](CO)[C@H](O)[C@@H]1O` [D00014 row 1, 2′-(2-acetamido-2-deoxy-β-D-galactopyranosyloxy)-[1,1′-Biphenyl]-3-carboxylic acid] yielded an IC50 [5] of 650 nM.
